This passage reports IC50 results from patent US20260055369A1, “METHOD FOR GENERATING CELLS OF THE T CELL LINEAGE WITH ENGINEERING BROADLY REACTIVE HUMAN NOTCH LIGAND” (H. Lee Moffitt Cancer Center and Research Institute, Inc., priority 2022, published 2026).

In assay [1] the test system is Notch1. As to the kind of experiment: Notch inhibition assay with soluble antagonists and WT DLL4 coated plates (CHO-K1 N1-Gal4). The following applies: comparison with DAPT and BB-94, plates coated with 50 nM WT DLL4; FIG. 4B; read-out: IC50 for inhibition of Notch1 activation. The assay is classed as cell-based. On the procedure:
For CHO-K1 N1-Gal4 reporter cells, on day one, biotinylated WT DLL4 was pre-coated in 96-well plates at 50 nM following the same protocol described above. Next, CHO-K1 N1-Gal4 cells were detached with trypsin-EDTA, washed, and diluted at 200,000 cells/mL in α-MEM media. Ten-fold serial dilutions of non-biotinylated DLL4 ligands (N-EGF5) were prepared in DPBS starting at 600 nM. Next, soluble inhibitors were mixed in ratio 1:1 with CHO-K1 N1-Gal4 200,000 cells/mL stocks for 15 min at room temperature to pre-block Notch receptors. Two hundred microliters of inhibition reactions containing 20,000 reporter cells were added to WT DLL4-coated wells, and plates incubated for 24 hours at 37° C. and 5% CO2. When DAPT (gamma-secretase inhibitor, Sigma) and BB-94 (ADAM metalloprotease inhibitor, Sigma) were used, stock solutions were prepared at 100 μM in 8% DMSO. Appropriate DMSO controls were included to test Notch activation and cell viability. Final DMSO concentration in the experiment was kept below 1%. […] On day two, assay plates were washed with 200 μL of DPBS, CHO-K1 N1-Gal4 cells detached with trypsin-EDTA, quenched with 200 μL of α-MEM media, and Notch activation measured by flow cytometry (BD Accuri C6 Plus). […]

For assay [2], the system named is Notch1. The experiment in a line: Notch inhibition assay in co-culture format (CHO-K1 N1-Gal4 with HEK293T expressing WT DLL4). The following applies: co-culture 1:1 with HEK293T expressing WT DLL4; read-out: IC50 for inhibition of Notch1 activation by cellular DLL4. It is filed as cell-based. On the procedure: For inhibition of CHO-K1 N1-Gal4 cells with DAPT and Delta^MAX, the experiment was set-up following the protocol described above with the exception that CHO-K1 N1-Gal4 reporters were incubated with HEK293T-expressing WT DLL4 for Notch activation. Three-fold serial dilutions of soluble Delta^MAX and DAPT were prepared in DPBS starting at 6,000 nM. For DAPT, a stock solution of 100 μM in 8% DMSO was prepared before serial dilutions in DPBS. Appropriate DMSO controls were also assayed for cytotoxicity. Final DMSO concentration in the wells was maintained below 1%. Thirty thousand signal senders and pre-blocked signal receivers (100 μL each) were incubated for 24 hours at 37° C. and 5% CO2 before analysis by flow cytometry. Maximum Notch activation (100%) was set in the absence of soluble inhibitors and normalized to wells containing CHO-K1 N1-Gal4 cells and HEK293T lacking expression of WT DLL4. Mean fluorescence intensity is represented as percentage relative to Notch activation in the absence of inhibitors±s.d. of three independent biological replicates.

Structures are written as SMILES.

For `CNC(=O)[C@H](Cc1ccccc1)NC(=O)[C@H](CC(C)C)[C@H](CSc1cccs1)C(=O)NO` [BB-94, reference compound], the IC50 with Notch1 [1] came to 1000 nM.
Turning to `C[C@H](NC(=O)Cc1cc(F)cc(F)c1)C(=O)N[C@H](C(=O)OC(C)(C)C)c1ccccc1` [DAPT, reference compound], the IC50 came out at 40 nM in the assay on Notch1 [1] and 100 nM in the assay on Notch1 [2].

By IC50 is commonly meant the concentration at which inhibition is half-maximal.
